Data as given in the supplement of paper PMC9763283.

Experiments:
Assay in all cases: area under growth-rate inhibition curve (AUC GRI) (dimensionless (GR-based AUC)); higher = less growth inhibition
Settings in all cases: exposure time: 72 h; concentrations: 0.1, 1, 10 uM
[1] = system: BT474-LTR
How it was run: (§1)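 Six breast cancer cell line models (two triple-negative lines, plus parental and lapatinib + trastuzumab-resistant HER2+ lines) were plated at optimised log-phase densities and exposed to compound at 0.1, 1 or 10 µM for 72 h. Cells were fixed in 4% paraformaldehyde, and nuclei were stained with Hoechst 33342 or DAPI, imaged and counted. Area under the growth-rate inhibition curve came from 2 biological replicates, with growth corrected using Day 0 plates, untreated Day 3 plates and DMSO controls.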

[2] = system: BT474-P
How it was run: as §1

[3] = system: MDA-MB-231
How it was run: as §1

[4] = system: MDA-MB-468
How it was run: as §1

[5] = system: SKBR3-LTR
How it was run: as §1

[6] = system: SKBR3-P
How it was run: as §1

Structure (SMILES) | area under growth-rate inhibition curve [1] | area under growth-rate inhibition curve [2] | area under growth-rate inhibition curve [3] | area under growth-rate inhibition curve [4] | area under growth-rate inhibition curve [5] | area under growth-rate inhibition curve [6]
CCN1CCCC1CNC(=O)c1cc(S(=O)(=O)CC)c(N)cc1OC (configuration not stated) [Amisulpride] | 0.985 | 1.01 | 0.988 | 1.01 | 0.975 | 1.02
C[N+]1(C)[C@@H]2CC(OC(=O)C(O)(c3cccs3)c3cccs3)C[C@H]1C1OC12.O.[Br-] (some centres not stated) [Tiotropium Bromide hydrate] | 1.12 | 1.05 | 1.05 | 1.03 | 1.04 | 1.02
CN(C)C(=O)Oc1ccc[n+](C)c1.[Br-] [Pyridostigmine Bromide] | 1.07 | 1.04 | 1.05 | 1.03 | 1.04 | 0.997
CNC[C@H](O)c1cccc(O)c1.Cl [Phenylephrine HCl] | 1.09 | 1.01 | 0.996 | 1.03 | 1.02 | 0.985
CN1C[C@H](C(=O)N[C@]2(C)O[C@@]3(O)[C@@H]4CCCN4C(=O)[C@H](Cc4ccccc4)N3C2=O)C[C@@H]2c3cccc4[nH]cc(c34)C[C@H]21.CS(=O)(=O)O [Dihydroergotamine mesylate] | 1.01 | 0.974 | 0.986 | 1.02 | 1.05 | 0.947
O=C1CCc2ccc(OCCCCN3CCN(c4cccc(Cl)c4Cl)CC3)cc2N1 [Aripiprazole] | 0.955 | 0.924 | 0.988 | 0.863 | 0.996 | 0.971
CCN(C)C(=O)Oc1cccc(C(C)N(C)C)c1.O=C(O)C(O)C(O)C(=O)O (configuration not stated) [Rivastigmine Tartrate] | 1.07 | 1.06 | 1.03 | 1.04 | 1.06 | 1.02
CC(=O)OCC(=O)NCCCOc1cccc(CN2CCCCC2)c1.[Cl-].[H+] [Roxatidine Acetate HCl] | 1.07 | 1.04 | 1.03 | 1.02 | 1.04 | 0.991
CC(C)(c1ccc(OCC(O)CO)cc1)c1ccc(OCC(O)CCl)cc1 (stereo not drawn) [EPI-001] | 1.07 | 0.993 | 1.05 | 1.01 | 1.07 | 1.01
CN1CCN(C(=O)c2cc3cc(Cl)ccc3[nH]2)CC1 | 1.06 | 1.02 | 1.04 | 1.04 | 1.05 | 0.993
Cc1ccccc1C(OCCN(C)C)c1ccccc1.O=C(O)CC(O)(CC(=O)O)C(=O)O (configuration not stated) [Orphenadrine Citrate] | 1.06 | 1.03 | 1.02 | 1.04 | 1.07 | 0.995
CC(=O)OCC[N+](C)(C)C.[Cl-] [Acetylcholine Chloride] | 1.09 | 1.03 | 1.04 | 1.04 | 1.05 | 1.02
NCC1(CC(=O)O)CCCCC1 [Gabapentin] | 1.04 | 1 | 1.04 | 1.04 | 1.08 | 1.03
CC1(C)C[C@@H]1C(=O)N/C(=C\CCCCSC[C@H](N)C(=O)O)C(=O)[O-].[Na+] [Cilastatin sodium] | 1.05 | 1.03 | 1 | 1.02 | 1.03 | 1.01
COc1ccccc1N1CCN(CC(O)COc2cccc3ccccc23)CC1 (configuration not stated) [Naftopidil] | 1.08 | 1.01 | 1.04 | 1.02 | 1.07 | 1
C=CCN1CCC23c4c5ccc(O)c4OC2C(OCCOCCOCCOCCOCCOCCOCCOC)CCC3(O)C1C5 (configuration not stated) [Naloxegol] | 0.997 | 1 | 0.991 | 1.02 | 1.01 | 1.01
NCCc1ccc(O)c(O)c1.[Cl-].[H+] [Dopamine HCl] | 1.11 | 1.04 | 1.02 | 1.03 | 1.07 | 1.02
CN1CCC(=C2c3ccccc3CCc3cccnc32)CC1.O=C(O)C=CC(=O)O.O=C(O)C=CC(=O)O [Azatadine dimaleate] | 1.12 | 1.07 | 1.05 | 1.05 | 1.01 | 1.02
CNCC(O)c1ccc(O)c(O)c1.[Cl-].[H+] (configuration not stated) [Epinephrine HCl] | 1.07 | 1.04 | 0.965 | 1 | 1.03 | 1.02
Nc1nc(CC(=O)Nc2ccc(CCNCC(O)c3ccccc3)cc2)cs1 (configuration not stated) [Mirabegron] | 1.11 | 1.04 | 1.02 | 1.01 | 1.07 | 1.02
CNCC[C@H](Oc1cccc2ccccc12)c1cccs1.[Cl-].[H+] [Duloxetine HCl] | 0.98 | 0.892 | 1 | 0.88 | 1.02 | 0.964
CNCCCC12CCC(c3ccccc31)c1ccccc12.[Cl-].[H+] [Maprotiline HCl] | 1.02 | 0.984 | 0.967 | 0.96 | 1.02 | 0.982
CCN(CC)CC(=O)Nc1c(C)cccc1C [Lidocaine] | 1.11 | 1.04 | 1.03 | 1.05 | 1.08 | 1.03
CS(=O)(=O)c1ccc(C(=O)Nc2ccc(Cl)c(-c3ccccn3)c2)c(Cl)c1 [Vismodegib (GDC-0449)] | 1.08 | 1.03 | 1.03 | 0.997 | 1.03 | 1.03
NCCCCC1NC(=O)C(Cc2c[nH]c3ccccc23)NC(=O)C(c2ccccc2)NC(=O)C2CC(OC(=O)NCCN)CN2C(=O)C(Cc2ccccc2)NC(=O)C(Cc2ccc(OCc3ccccc3)cc2)NC1=O (configuration not stated) [Pasireotide] | 1.04 | 1.02 | 1.03 | 1.03 | 1.05 | 1.03
CC(C)N(CCC(c1ccccc1)c1cc(CO)ccc1O)C(C)C (configuration not stated) | 1.06 | 1.04 | 1.03 | 1.04 | 1.03 | 0.957

Structure (SMILES) | area under growth-rate inhibition curve [1] | area under growth-rate inhibition curve [2] | area under growth-rate inhibition curve [3] | area under growth-rate inhibition curve [4] | area under growth-rate inhibition curve [5] | area under growth-rate inhibition curve [6]
[Cl-].[H+].c1ccc(CC2=NCCN2)cc1 [Tolazoline HCl] | 1.1 | 1.06 | 1.04 | 1.05 | 1.1 | 1.02
CCOC(=O)c1cncn1C(C)c1ccccc1 (configuration not stated) [Etomidate] | 1.09 | 1.08 | 1.05 | 1.03 | 1.07 | 0.999
CCOC(=O)[C@H](CCc1ccccc1)N[C@H]1CCCN2CCC[C@@H](C(=O)O)N2C1=O.O [Cilazapril Monohydrate] | 1.1 | 1.04 | 1.03 | 1.04 | 1.07 | 1.04
COc1ccccc1N1CCN(CC(O)COc2cccc3ccccc23)CC1.[Cl-].[Cl-].[H+].[H+] (configuration not stated) [Naftopidil DiHCl] | 1.02 | 0.978 | 1.02 | 0.995 | 1.05 | 0.983
[Cl-].[H+].c1ccc(CN(CC2=NCCN2)c2ccccc2)cc1 [Antazoline hydrochloride] | 1.05 | 1.01 | 1.03 | 1.04 | 1.05 | 1.03
CC(C)C(=O)OCC(=O)[C@@]12O[C@H](C3CCCCC3)O[C@@H]1C[C@H]1[C@@H]3CCC4=CC(=O)C=C[C@]4(C)[C@H]3[C@@H](O)C[C@@]12C [Ciclesonide] | 0.999 | 0.947 | 0.996 | 1.03 | 1.05 | 0.955
COc1ccccc1Oc1c(NS(=O)(=O)c2ccc(C(C)(C)C)cc2)nc(-c2ncccn2)nc1OCCO [Bosentan] | 1.08 | 1.03 | 1.03 | 1.03 | 1.05 | 1.02
CN1CCc2cccc3c2[C@H]1Cc1ccc(O)c(O)c1-3.[Cl-].[H+] [(R)-(-)-Apomorphine hydrochloride] | 0.963 | 0.933 | 1.03 | 0.977 | 1.04 | 0.965
Br.Cc1ccc(Sc2ccccc2N2CCNCC2)c(C)c1 | 0.912 | 0.865 | 0.879 | 0.885 | 0.929 | 0.872
CCC(=C(c1ccc(O)cc1)c1ccc(OCCN(C)C)cc1)c1ccccc1 [4-hydroxytamoxifen] | 0.936 | 0.865 | 0.935 | 0.896 | 0.934 | 0.979
N#Cc1cc2cc(CN3CCC(Nc4ncnc5sc(CC(F)(F)F)cc45)CC3)ccc2[nH]1 [MI-136] | 0.906 | 0.833 | 0.931 | 0.834 | 1.01 | 0.895
CN(C)CC(c1ccc(O)cc1)C1(O)CCCCC1.O=C(O)CCC(=O)O (configuration not stated) [Desvenlafaxine Succinate] | 1.09 | 1.06 | 1.02 | 1.05 | 1.08 | 1.01
CC(c1cc2ccccc2s1)N(O)C(N)=O (configuration not stated) [Zileuton] | 1.07 | 1.04 | 1.04 | 1.05 | 1.05 | 1.04
C#C[C@]1(O)C=C[C@H]2[C@@H]3CCC4=CC(=O)CC[C@@H]4[C@H]3CC[C@@]21CC [Gestodene] | 1.04 | 0.981 | 1.03 | 1.03 | 1.12 | 1.01
O=S(=O)(c1ccccc1)c1cnc2c(N3CCNCC3)cccc2c1 | 1.08 | 0.99 | 1.03 | 1.01 | 1.05 | 0.997
COc1ccccc1OCCNCC(O)COc1cccc2[nH]c3ccccc3c12 (configuration not stated) [Carvedilol] | 1.03 | 0.957 | 1.03 | 0.937 | 1.07 | 1
CC(C)NCC(O)COc1cccc2ccccc12.[Cl-].[H+] (configuration not stated) [Propranolol HCl] | 1.1 | 1.11 | 1.04 | 1.03 | 1.06 | 1.01
Cc1ccccc1C(=O)Nc1ccc(C(=O)N2CCCC(O)c3cc(Cl)ccc32)c(C)c1 (configuration not stated) [Tolvaptan] | 1.03 | 1 | 1.01 | 1.02 | 1.03 | 1.02
Cc1nccn1CC1CCc2c(c3ccccc3n2C)C1=O.[Cl-].[H+] (configuration not stated) [Ondansetron HCl] | 1.08 | 1.05 | 1.03 | 1.02 | 1.02 | 1.03
CC(C[N+](C)(C)C)OC(N)=O.[Cl-] (configuration not stated) [Bethanechol chloride] | 1.11 | 1.05 | 1.03 | 1.04 | 1.07 | 1.03
[Cl-].[H+].c1ccc2c(c1)CCCC2C1=NCCN1 (configuration not stated) [Tetrahydrozoline HCl] | 1.07 | 1.03 | 1.01 | 1.03 | 1.02 | 1.02
CN1CCN(C2=Nc3cc(Cl)ccc3Nc3ccccc32)CC1 [Clozapine] | 1.09 | 1.06 | 1.04 | 1.03 | 1.07 | 1.01
O=C(O[C@H]1C[C@H]2CC[C@@H](C1)[N+]21CCCC1)C(O)(c1ccccc1)c1ccccc1.[Cl-] [Trospium chloride] | 1.11 | 1.06 | 1.04 | 1.06 | 1.09 | 1
O=C(O)CCCN1CCC(OC(c2ccc(Cl)cc2)c2ccccn2)CC1.O=S(=O)(O)c1ccccc1 (configuration not stated) [Bepotastine Besilate] | 1.09 | 1.03 | 1.03 | 1.03 | 1.06 | 0.992
CCN(CC)CCNC(=O)c1cc(Cl)c(N)cc1OC.Cl [MetoclopraMide HCl] | 1.09 | 1.04 | 1.05 | 1.01 | 1.04 | 1.02
Cc1c(C(=O)Nc2ccc(N3CC(C)OC(C)C3)nc2)cccc1-c1ccc(OC(F)(F)F)cc1 (configuration not stated) [LDE225 (NVP-LDE225,Erismodegib)] | 1.04 | 0.909 | 0.921 | 0.915 | 1.03 | 0.981
